Test results as given in paper PMC12133303, “Characterisation of RNA guanine-7 methyltransferase (RNMT) using a small molecule approach” (Biochemical Journal, 2025).
Like-named read-outs stand apart in the source and are kept apart here. Each block holds one compound with its values, some of them ahead of it.

Columns and labels:
Avi-HsRNMT-RAM = target: T1, Avi-HsRNMT-RAM (Homo sapiens, UniProt O43148); assay: SPR binding to immobilised Avi-HsRNMT-RAM; settings: for kon: read-out: ka
T1 construct: Both HsRNMT full-length proteins (1-476) in complex with HsRAM (1-90) (HsRNMT-RAM and Avi-HsRNMT-RAM); hexa-His tag (TEV-cleavable) (N, cleaved yes); made in house; host or cells: Escherichia coli BL21 (DE3), co-transformed with pCDFduet-BirA
T1 sequence (O43148 whole entry): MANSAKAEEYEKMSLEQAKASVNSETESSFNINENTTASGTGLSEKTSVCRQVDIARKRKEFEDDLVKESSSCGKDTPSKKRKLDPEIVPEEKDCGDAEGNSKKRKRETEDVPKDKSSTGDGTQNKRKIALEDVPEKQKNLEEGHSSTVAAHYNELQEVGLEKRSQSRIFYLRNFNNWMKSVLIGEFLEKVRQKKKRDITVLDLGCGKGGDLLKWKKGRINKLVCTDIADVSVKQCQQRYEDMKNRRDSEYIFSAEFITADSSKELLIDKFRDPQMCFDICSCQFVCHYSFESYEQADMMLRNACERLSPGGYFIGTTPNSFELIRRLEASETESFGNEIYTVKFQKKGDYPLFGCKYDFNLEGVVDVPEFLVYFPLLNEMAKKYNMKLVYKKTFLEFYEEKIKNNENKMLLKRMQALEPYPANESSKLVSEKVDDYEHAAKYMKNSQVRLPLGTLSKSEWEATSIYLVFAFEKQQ
T1 sequence (Q9BTL3 1-90 partner limits assumed): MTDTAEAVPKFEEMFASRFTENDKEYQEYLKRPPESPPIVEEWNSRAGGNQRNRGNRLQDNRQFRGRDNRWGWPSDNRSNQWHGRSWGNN
Text: To elucidate the cap-binding mode, full-length HsRNMT in complex with activating subunit RAM (Avi-HsRNMT-RAM) was investigated by surface plasmon resonance (SPR). We first measured the kinetic and equilibrium binding constants (KD) for SAM (Figure 3A), SAH (Figure 3B), and Sinefungin (Figure 3C). The kinetics of binding for these compounds appear very similar with a rapid onset of binding reaching a steady state within a few seconds. The loss of binding on washing with buffer was very similar.
Studies of binding kinetics were performed on a Biacore™ 8K + instrument (GE Healthcare). […] Compounds were tested in duplicate in a three-fold, eight-point serial dilution series in immobilisation buffer supplemented with 1% DMSO, with a flow rate of 30 μL min^-1, a contact time of 60 s and a dissociation time of 120 s at 25°C.
All monitored binding resonance signals were referenced with responses from unmodified reference surfaces, corrected for bulk shifts arising from differences in DMSO concentrations between samples and running buffer (solvent correction) and blank-referenced. Analysis was performed using the Biacore™ Insight Evaluation Software 2.0 with data fitted using the Langmuir 1:1 model.
The full-length HsRNMT complexed with HsRAM 1–90 (Avi-HsRNMT-RAM) was immobilised onto a Series S high-affinity SA sensor chip via C-terminal Avi-tag capture in HBS-P + buffer (10 mM HEPES, 150 mM NaCl, 0.5 mM TCEP) to an immobilisation level of 2200 RU, and the titration was performed at 15°C.

HsRNMT-RAM [1] = target: T2, HsRNMT-RAM (Homo sapiens, UniProt O43148); assay: Mode of inhibition experiments (RapidFire assay); settings: for Ki: Ki (95% CI)
T2 sequence (O43148 whole entry): as the sequence (O43148 whole entry) above
T2 sequence (Q9BTL3 1-90 partner limits assumed): as the sequence (Q9BTL3 1-90 partner limits assumed) above

HsRNMT-RAM [2] = target: T2, HsRNMT-RAM; assay: RapidFire mass spectrometry assay, inhibition dose response; format: biochemical; design: For biochemical assays, full-length HsRNMT (1-476) was cloned in the pOPC bi-cistronic plasmid; His-MBP (TEV-cleavable) (cleaved yes); made in house; host or cells: Escherichia coli BL21 (DE3); settings: for IC50: 5 nM HsRNMT-RAM, 2 µM SAM, 2 µM cap, 60 minutes, 10 point 1:3 dilutions from 100 μM, read-out: pIC50 (negative logarithm of half-maximal inhibitory concentration [molar]) (converted)
HsRNMT-RAM [3] = target: T2, HsRNMT-RAM; assay: Isothermal titration calorimetry (ITC); format: binding; design: For biochemical assays, full-length HsRNMT (1-476) was cloned in the pOPC bi-cistronic plasmid; His-MBP (TEV-cleavable) (cleaved yes); made in house; host or cells: Escherichia coli BL21 (DE3); settings: for ΔG / ΔH / −TΔS: 25 mM HEPES pH7.5, 150 mM NaCl, 1 mM TCEP with 10 mM Sinefungin or SAH at 298°K; for Kd: protein pretreated with Sinefungin or SAH
Method: For both DDD1060606 and DDD1870799, we determined the enthalpic and entropic components of the free energy of binding to HsRNMT-RAM to guide both compound selection and the optimisation process. Note that all of the isothermal titration calorimetry (ITC) experiments were performed with protein pretreated with SAH or Sinefungin. We used cap as the reference ligand as it is widely accepted that ligands with more negative enthalpies of binding provide better starting points for lead optimisation. The interaction of cap with HsRNMT-RAM is enthalpically driven with an ΔH of −33.5 kcal/mol (Figure 9A) and net free energy change, ΔG of −8.4 kcal/mol (Figure 9B). Furthermore, we determined the binding affinities for DDD1060606 and DDD1870799 to HsRNMT-RAM.
[…] Working stock for ligands and protein complex was prepared at the required concentration by diluting the stocks with the dialysis buffer. The DMSO concentrations in the cell and syringe solutions were matched to 2.5% for the compound (DDD1060606 or DDD1870799) titrations. Experiments were performed using 13 injections of 3 μL of ligand using Malvern PEAQ-ITC system at 25°C, at 750 rpm with reference power set to 7 μcal/s. The thermograms were analysed using MicroCal PEAQ-ITC Analysis Software, blanked to ligand control and fit to One Set of Sites Model.

HsRNMT-RAM [4] = target: T2, HsRNMT-RAM; assay: Km determinations (RapidFire Mass Spec assay); format: biochemical; design: For biochemical assays, full-length HsRNMT (1-476) was cloned in the pOPC bi-cistronic plasmid; His-MBP (TEV-cleavable) (cleaved yes); made in house; host or cells: Escherichia coli BL21 (DE3); settings: SAM 40 to 0.08 µM, saturating cap (40 µM), 5 nM enzyme; mean of three experiments [95% CI]
Method: Experiments to determine the Km^app values were carried out using a two-fold dilution of cap or SAM from 40 to 0.08 µM and a saturating concentration (40 µM) of SAM (Km^app cap) or cap (Km^app SAM). HsRNMT-RAM was used at 5 nM. Data were analysed to calculate the initial velocity (V0). Km^app and Vmax values were determined by nonlinear regression analysis fitted to the Michaelis–Menten equation [46] using Sigmaplot Version 14.0.3.192.

[5] = SPR, inhibitor titrated in presence of SAH
[6] = SPR, inhibitor titrated in presence of SAH, read-out: KD (kinetic)
[7] = SPR, inhibitor titrated in presence of SAH, read-out: KD (steady state)
[8] = SPR, inhibitor titrated in presence of SAM
[9] = SPR, inhibitor titrated, no co-ligand
[10] = SPR, no co-ligand, Langmuir 1:1 model
[11] = SPR, no co-ligand, read-out: KD (kinetic)
[12] = SPR, no co-ligand, read-out: KD (steady state)
[13] = SPR, ligand titrated in presence of SAH
[14] = SPR, ligand titrated in presence of Sinefungin (saturating, 1 µM), 15°C

- Rmax (Avi-HsRNMT-RAM; [5]): 13.2 RU
- kd (Avi-HsRNMT-RAM; [5]): 0.27 s⁻¹
- Kd (Avi-HsRNMT-RAM; [6]): 1600 nM
- Kd (Avi-HsRNMT-RAM; [7]): 1400 nM
- KD (kinetic) (Avi-HsRNMT-RAM; [8]): No binding
- KD (steady state) (Avi-HsRNMT-RAM; [8]): No binding
- Rmax (Avi-HsRNMT-RAM; [8]): No binding
- ka (Avi-HsRNMT-RAM; [8]): No binding
- kd (Avi-HsRNMT-RAM; [8]): No binding
- KD (kinetic) (Avi-HsRNMT-RAM; [9]): No binding
- KD (steady state) (Avi-HsRNMT-RAM; [9]): No binding
- Rmax (Avi-HsRNMT-RAM; [9]): No binding
- ka (Avi-HsRNMT-RAM; [9]): No binding
- kd (Avi-HsRNMT-RAM; [9]): No binding
- Ki (HsRNMT-RAM [1]; Ki SAM, against SAM): 1600 nM
- Ki (HsRNMT-RAM [1]; Ki cap, against cap): 1600 nM
- mode of inhibition with SAM (HsRNMT-RAM [1]; against SAM): Uncompetitive
- mode of inhibition with cap (HsRNMT-RAM [1]; against cap): Uncompetitive
- inhibition of HsRNMT-RAM activity (HsRNMT-RAM [2]): > 80%
- IC50 (HsRNMT-RAM [2]): 3.16 µM
- ΔG (HsRNMT-RAM [3]): -7.5 kcal/mol
- ΔH (HsRNMT-RAM [3]): -4.3 kcal/mol
- −TΔS (HsRNMT-RAM [3]): -3.1 kcal/mol
- entropic contribution Δ(TΔS) (HsRNMT-RAM [3]; DDD1060606 compared with DDD1870799): -1.8 kcal/mol
- Kd (HsRNMT-RAM [3]): 3200 nM
Compound: O=C(Cc1ccsc1)N1CCCC(c2n[nH]c3ncccc23)C1 (stereo not drawn) [DDD1060606]

Compound: Nc1ncnc2c1ncn2[C@@H]1O[C@H](C[C@@H](N)CC[C@H](N)C(=O)O)[C@@H](O)[C@H]1O [Sinefungin, reference compound]
- Rmax (Avi-HsRNMT-RAM; SPR, no co-ligand): 14.2 RU
- kd (Avi-HsRNMT-RAM; [10]): 0.092 s⁻¹
- Kd (Avi-HsRNMT-RAM; [11]): 77 nM
- Kd (Avi-HsRNMT-RAM; [12]): 73 nM
- kon (Avi-HsRNMT-RAM): 1.2e+06 M⁻¹ s⁻¹
- Ki (HsRNMT-RAM [1]; Ki SAM, against SAM): 6.8 nM
- Ki (HsRNMT-RAM [1]; Ki cap, against cap): 104 nM
- mode of inhibition with SAM (HsRNMT-RAM [1]; against SAM): competitive inhibition
- mode of inhibition with cap (HsRNMT-RAM [1]; against cap): non-competitive inhibition

- Rmax (Avi-HsRNMT-RAM; [5]): 13.3 RU
- kd (Avi-HsRNMT-RAM; [5]): 0.45 s⁻¹
- Kd (Avi-HsRNMT-RAM; [6]): 2500 nM
- Kd (Avi-HsRNMT-RAM; [7]): 2300 nM
- KD (kinetic) (Avi-HsRNMT-RAM; [8]): No binding
- KD (steady state) (Avi-HsRNMT-RAM; [8]): No binding
- Rmax (Avi-HsRNMT-RAM; [8]): No binding
- ka (Avi-HsRNMT-RAM; [8]): No binding
- kd (Avi-HsRNMT-RAM; [8]): No binding
- KD (kinetic) (Avi-HsRNMT-RAM; [9]): No binding
- KD (steady state) (Avi-HsRNMT-RAM; [9]): No binding
- Rmax (Avi-HsRNMT-RAM; [9]): No binding
- ka (Avi-HsRNMT-RAM; [9]): No binding
- kd (Avi-HsRNMT-RAM; [9]): No binding
- Ki (HsRNMT-RAM [1]; Ki SAM, against SAM): 3400 nM
- Ki (HsRNMT-RAM [1]; Ki cap, against cap): 3300 nM
- mode of inhibition with SAM (HsRNMT-RAM [1]; against SAM): Uncompetitive
- mode of inhibition with cap (HsRNMT-RAM [1]; against cap): Uncompetitive
- inhibition of HsRNMT-RAM activity (HsRNMT-RAM [2]): > 80%
- IC50 (HsRNMT-RAM [2]): 10 µM
- ΔG (HsRNMT-RAM [3]): -7.5 kcal/mol
- ΔH (HsRNMT-RAM [3]): -6.2 kcal/mol
- −TΔS (HsRNMT-RAM [3]): -1.3 kcal/mol
- net enthalpic change ΔΔH (HsRNMT-RAM [3]; DDD1870799 in comparison with DDD1060606): -1.9 kcal/mol
- Kd (HsRNMT-RAM [3]): 2900 nM
Compound: O=C(Cc1ccc(F)cc1)N1CCCC(c2n[nH]c3nc(O)ccc23)C1 (stereo not drawn) [DDD1870799]

- KD (kinetic) (Avi-HsRNMT-RAM; [13]): No binding
- KD (steady state) (Avi-HsRNMT-RAM; [13]): No binding
- Rmax (Avi-HsRNMT-RAM; [13]): No binding
- ka (Avi-HsRNMT-RAM; [13]): No binding
- kd (Avi-HsRNMT-RAM; [13]): No binding
- KD (kinetic) (Avi-HsRNMT-RAM; SPR, ligand titrated in presence of SAH, listed as cap): No interaction
- Rmax (Avi-HsRNMT-RAM; [14]): 11.8 RU
- kd (Avi-HsRNMT-RAM; [14]): 0.025 s⁻¹
- Kd (Avi-HsRNMT-RAM; SPR, ligand titrated in presence of Sinefungin (saturating, 1 µM), 15°C, read-out: KD (kinetic)): 20 nM
- Kd (Avi-HsRNMT-RAM; SPR, ligand titrated in presence of Sinefungin (saturating, 1 µM), 15°C, read-out: KD (steady state)): 35 nM
- kon (Avi-HsRNMT-RAM; [14]): 1.2e+06 M⁻¹ s⁻¹
- KD (kinetic) (Avi-HsRNMT-RAM; SPR, no co-ligand): No binding
- KD (steady state) (Avi-HsRNMT-RAM; SPR, no co-ligand): No binding
- Rmax (Avi-HsRNMT-RAM; SPR, no co-ligand): No binding
- ka (Avi-HsRNMT-RAM; [10]): No binding
- kd (Avi-HsRNMT-RAM; [10]): No binding
- KD (kinetic) (Avi-HsRNMT-RAM; SPR, no co-ligand, listed as cap): No interaction
- ΔG (HsRNMT-RAM [3]): -8.4 kcal/mol
- ΔH (HsRNMT-RAM [3]): -33.5 kcal/mol
- −TΔS (HsRNMT-RAM [3]): 25.1 kcal/mol
- Kd (HsRNMT-RAM [3]): 700 nM
Compound: Nc1nc2c(ncn2[C@@H]2O[C@H](COP(=O)(O)OP(=O)(O)OP(=O)(O)OC[C@H]3O[C@@H](n4cnc5c(=O)[nH]c(N)nc54)[C@H](O)[C@@H]3O)[C@@H](O)[C@H]2O)c(=O)[nH]1 [Cap, G(5′)ppp(5′)G]

Compound: C[S+](CC[C@H](N)C(=O)[O-])C[C@H]1O[C@@H](n2cnc3c(N)ncnc32)[C@H](O)[C@@H]1O (stereo partly drawn) [SAM, S-adenosylmethionine]
- Rmax (Avi-HsRNMT-RAM; SPR, no co-ligand): 14.9 RU
- kd (Avi-HsRNMT-RAM; [10]): 0.1 s⁻¹
- Kd (Avi-HsRNMT-RAM; [11]): 79 nM
- Kd (Avi-HsRNMT-RAM; [12]): 89 nM
- kon (Avi-HsRNMT-RAM): 1.2e+06 M⁻¹ s⁻¹
- Km (HsRNMT-RAM [4]): 1600 nM

Compound: Nc1ncnc2c1ncn2[C@@H]1O[C@H](CSCC[C@H](N)C(=O)O)[C@@H](O)[C@H]1O [SAH, S-adenosylhomocysteine]
- Rmax (Avi-HsRNMT-RAM; SPR, no co-ligand): 14.3 RU
- kd (Avi-HsRNMT-RAM; [10]): 0.072 s⁻¹
- Kd (Avi-HsRNMT-RAM; [11]): 19 nM
- Kd (Avi-HsRNMT-RAM; [12]): 18 nM
- kon (Avi-HsRNMT-RAM): 3.8e+06 M⁻¹ s⁻¹

- Ki (HsRNMT-RAM [1]; Ki cap, against cap): 2300 nM
- mode of inhibition with cap (HsRNMT-RAM [1]; against cap): competitive
Compound: Nc1nc(O)c2ncn([C@@H]3O[C@H](COP(=O)(O)OP(=O)(O)NP(=O)(O)O)[C@@H](O)[C@H]3O)c2n1 [GMP-PnP, guanosine 5′-[β,γ-imido]triphosphate, reference compound]
